Assay results reported in ChEMBL document CHEMBL1151158, “New nitrogenous Germacranes from a Thai marine sponge, Axinyssa n. sp” (2004).
Activity calls are given as the source filed them. The calls are words filed in the database; no cut-off is given here.

Experiments:
Format in all cases: functional
Bacillus subtilis = assay: Antimicrobial activity against Bacillus subtilis ATCC 6633 at 500 ug/disk after 24 hrs by agar disk diffusion method
Candida albicans = assay: Antimicrobial activity against Candida albicans ATCC 10231 at 500 ug/disk after 24 hrs by agar disk diffusion method
Staphylococcus aureus = assay: Antimicrobial activity against Staphylococcus aureus ATCC 25923 at 500 ug/disk after 24 hrs by agar disk diffusion method

| Structure (SMILES) | Activity (Bacillus subtilis) | Activity (Candida albicans) | Activity (Staphylococcus aureus) | zone of inhibition at 500 µg/disc (Bacillus subtilis; ATCC 6633, 24 h, read-out: IZ) [mm] | zone of inhibition at 500 µg/disc (Candida albicans; ATCC 10231, 24 h, read-out: IZ) [mm] | zone of inhibition at 500 µg/disc (Staphylococcus aureus; ATCC 25923, 24 h, read-out: IZ) [mm] |
| --- | --- | --- | --- | --- | --- | --- |
| C/C1=C/C[C@H](C(C)(C)NC(=O)NC(C)(C)[C@H]2C/C=C(/C)CC/C=C(/C)CC2)CC/C(C)=C\CC1 | inactive | inactive | inactive | – | – | – |
| C/C1=C/C[C@H](C(C)(C)N)CC/C(C)=C\CC1 | – | – | – | 22 | 27 | 23 |
